According to patent publication US20240173380A1, “CONNEXIN 43 FOR USE IN THE TREATMENT OF A CANCER TYPE CHARACTERIZED BY THE ACTIVATION OF A MITOGEN-ACTIVATED PROTEIN KINASE” (FUNDACIÓN PROFESOR NOVOA SANTOS, priority 2020, published 2024):
Counter-ions that a name gives are not always drawn.

Assays:
Format in all cases: cell-based, human
[1] = system: A375 melanoma cells (BRAF mutation); experiment: Cell proliferation and colony formation (xCELLigence, CCK-8, clonogenic assay)
Experimental: Dojindo's highly water-soluble tetrazolium salt (WST-8) is reduced by dehydrogenase activity in cells to give a yellow-color formazan dye, which is soluble in the tissue culture media. The amount of the formazan dye generated by dehydrogenases is directly proportional to the number of living cells. Equal number of cells (1000-2000 cells) were seeded per triplicate in 96-well plates and cultured in the different conditions. Medium was replaced by 100 μL of fresh medium and 10 μL of CCK-8 reagent was added per well. After an incubation for 1 to 4 h at 37° C., absorbance was measured at 450 nm in a NanoQuant microplate reader Infinite M200 (TECAN). Results were calculated as optical density (OD) 450 nm=OD of sample−OD of blank.
The E8 xCELLigence plates were prepared by addition of 100 μL of complete media to every well. After incubation at 37° C., plates were inserted into the xCELLigence station, and the base-line impedance was measured to ensure that all wells and connections were working. Following harvesting and counting, cells were diluted to the selected seeding density and 100 μl of cells in culture medium was added to each well. For the cell proliferation assays for each condition, 1×10^3-5×10^3 cells/well was seeded into 100 μL of media in the E-Plate L8 (Acea Biosciences). The attachment and proliferation of the cells were monitored every 30 min. Cell proliferation was monitored for 48-72 h. Cell Index at each time point is defined as (Rn−Rb)/15, where Rn is the cell-electrode impedance of the well when it contains cells and Rb is the background impedance of the well with the media alone. For the cell adhesion assays, for each condition, 1×10^3-5×10^3 cells/well was seeded into 100 μL of media in E-Plate L8 (Acea Biosciences). Cell proliferation was monitored for 1 h every 10 sec. The extend of cell adhesion and spreading was monitored every min for 1-3 h. Cell Index at each time point is defined as (Rn−Rb)/15, where Rn is the cell-electrode impedance of the well when it contains cells and Rb is the background impedance of the well with the media alone.
(§1) Colony formation assays were performed by seeding 5×10^3 to 5×10^4 cells per well onto 6-12 well plates and grown for 7-15 days. The culture medium was replaced every 48 h. The cells were washed with warm Saline Solution and fixed with cold 2% PFA for 15 min. Cells were washed with 1×PBS and stained with 0.1% of crystal violet (Sigma-Aldrich) for 15 min. After staining, the cells were washed with distilled water and dried at room temperature. The colonies were quantified by diluting crystal violet in 5% acetic acid and 100 μL of the solution was collected to measure the absorbance at 570 nm using a NanoQuant microplate reader Infinite M200 (TECAN).

[2] = system: cleaved caspase 3 in A375 cells; experiment: Cleaved caspase 3 western blot
Excerpt: (§2) The insoluble fraction was resuspended in lysis buffer (membrane).

[3] = system: A375 cells resistant to BRAF/MEKi (DR); experiment: Apoptosis assay (PI/YO-PRO-1) in double resistant cells; conditions: DR A375 cells transfected with Cx43 vector
Experimental: The BRAF mutated tumour cell lines A375 (melanoma), SK-Mel-28 (melanoma), MDA-MB-231 (human breast cancer) and HT-29 (human colorectal adenocarcinoma) were also used to test the role of Cx43 in drug resistance. SK-Mel147 (melanoma), NRAS mutated cell line was selected to compare the results with BRAF mutant cell lines. Cells were cultured in Dulbecco's modified Eagle's medium (DMEM) (Lonza) supplemented with 10% fetal bovine serum (FBS) (Gibco, Thermo Fisher Scientific) and 100 U/mL penicillin and 100 μg/ml streptomycin (Gibco, Thermo Fisher Scientific). […] After adding DMEM supplemented with 10% FBS, cells were transferred to falcon tube and counted using the Neubauer chamber method in a light microscope. […]
Supernatants (died cells) were aspirated and attached cells were harvested. Supernatants and cells were mixed, counted and 1 million cells were resuspended in 1 mL in flow cytometry (FC) buffer. […] After the incubation time (PI/YO-PRO) samples were analyzed in a FACs Scalibur acquiring 20,000 event per triplicate. The red fluorescence emitted by PI was detected at 610 nm and the green florescence emitted by YO-PRO was detected at 515 nm. Data was analyzed using the FCS Express 6 Flow software.

[4] = system: p53 and p16 in A375 cells; experiment: Western blot of senescence biomarkers p53 and p16; conditions: Cx43 cells vs cells transfected with empty vector
Excerpt: as §2

A375 tumour cell line = experiment: Cellular senescence: SA-β-Gal staining and flow cytometry
Experimental: The detection of SA-β-Gal activity was measured using the Senescence Cells Histochemical Staining Kit (Sigma-Aldrich). Cells were rinsed with warm PBS and fixed for 7 min at RT with a fixation buffer composed by 2% paraformaldehyde and 0.2% glutaraldehyde. After three washed with PBS, cells were incubated for 6 h or O/N at 37° C. without CO2 in a staining solution containing X-gal. This lactose analogue can be cleaved by β-galactosidase producing a blue insoluble product. Finally, cells were washed with PBS and images were taken using a light microscope.
SA-β-Gal activity was analyzed with the fluorogenic β-Galactosidase substrate di-β-D-galactopyranoside (FDG, Thermo Fisher Scientific), which is hydrolyzed by the endogenous β-galactosidase to fluorescein (FITC). Cells were harvested and incubated in a staining medium (PBS, 4% FBS, 10 mM HEPES, pH 7.2) at 37° C. for 10 min. The β-Galactosidase assay was started by adding warm 2 mM FDG to the cell suspension and after incubating for 3 min at 37° C. in the dark. The reaction was stopped with the addiction of ice-cold staining medium to the cells, which were kept on ice protected from light. […] was used for fluorescein and acquiring 20,000 event per triplicate. Data was analyzed using the FCS Express 6 Flow software.

[5] = system: HT29 colorectal cancer cells (BRAF mutation); experiment: Colony formation assay; conditions: HT29 transfected with Cx43 vector vs EV
Experimental: as §1

[6] = system: MDA-MB-231 breast cancer cells (BRAF mutation); experiment: Colony formation assay; conditions: MDA-MB-231 transfected with Cx43 vector vs EV
Experimental: as §1

[7] = system: Sk-Mel-147 melanoma cells (NRAS mutation); experiment: Colony formation assay; conditions: Sk-Mel-147 transfected with Cx43 vector
Experimental: as §1

A375 cell line = experiment: Gap junction intercellular communication: scrape loading and dye transfer; conditions: A375 transfected with Cx43 vector vs empty vector (EV)
Experimental: Cells were seeded on 6 or 12 wells and cultured until 80-100% of confluence and rinsed twice with warm PBS. Lucifer Yellow CH dilithium salt (1 mg/mL) (LY: Cell Projects Ltd© Kent) in PBS was added to the cells and parallel cuts (3 cuts per well) were performed with a surgical blade (Swann-Mortonscalpel®). After 3-5 min at 37° C. cells were washed with PBS and fixed 2% PFA in PBS. LY becomes incorporated by cells along the cut and move from the dye-loaded cells into adjacent ones connected by functional gap junction channels. The areas for LY loading were randomly selected in the central part of wells to obtain the images for quantification. Images were captured with 10× objective using a Nikon Eclipse Ti fluorescent microscope. The constant exposures were used for all images for a given experiment. Ten images per sample were quantified. The score was calculated as the ratio of the number of non-damage LY positive cells at the edge and the number of the LY positive cells outside the edge.
Cells were seeded on 12-wells plated and cultured until 80-100% of confluence. […] The fluorescence emitted was measured at 640/40 nm and 540/40 nm with two photodetectors, the time course of the passage of dye from the injected cell to the adjacent cells was studied.

A375 melanoma cells = experiment: Apoptosis assay, PI/YO-PRO-1 double staining, flow cytometry
Experimental: Supernatants (died cells) were aspirated and attached cells were harvested. Supernatants and cells were mixed, counted and 1 million cells were resuspended in 1 mL in flow cytometry (FC) buffer. Membrane viability analysis was performed by double staining PI/YO-PRO-1. YO-PRO-1 (Invitrogen) was added to the cells (150 nM) and incubated 10 min in the dark at 4° C. PI (Invitrogen) was added (2 μg/mL) and incubated for 5 min in the dark at 4° C. After the incubation time (PI/YO-PRO) samples were analyzed in a FACs Scalibur acquiring 20,000 event per triplicate. The red fluorescence emitted by PI was detected at 610 nm and the green florescence emitted by YO-PRO was detected at 515 nm. Data was analyzed using the FCS Express 6 Flow software.

Compound | colony formation capacity ([1]; 100 μM CBX for 7 days, A375 EV and Cx43-overexpressing cells) | levels of cleaved caspase-3 ([2]; Cx43 overexpression in combination with BRAF/MEKi (1/100 nM T/D, 5 days)) | levels of cleaved caspase-3 ([2]; Cx43 overexpression with BRAF/MEKi (T/D 4 days) followed by 24 h 3.5 μM NAV) | MFI ratio of apoptotic cells [3] | levels of senescent biomarkers p53 and p16 [4] | cellular senescence (flow cytometry, β-Gal staining) (A375 tumour cell line; A375-Cx43 vs A375-EV under 100 nM dabra and 1 nM trame for 5 days) | cellular senescence (ß-Galactosidase activity) (A375 tumour cell line; Cx43 re-expression by vector in A375, no drug) | capacity to form colonies [5] | capacity to form colonies [6] | capacity to form colonies [7] | dye coupling (GJIC) (A375 cell line) | cell proliferation and colony formation capacity ([1]; A375-Cx43 after 1-2 weeks and 4 months under 1 nM T/100 nM D) | cells detected ([1]; A375-Cx43 after 2 weeks under 1 nM T/100 nM D) | proliferation rate ([1]; A375 transfected with Cx43 vector vs empty vector, xCelligence, colony formation, CCK8) | capacity to form colonies ([1]; A375 with Cx43 vector plus different concentrations of dabrafenib and trametinib for 7 days) | apoptosis (A375 melanoma cells; A375-Cx43 under BRAF/MEKi treatment (100 nM dabra, 1 nM trame, 5 days)) | basal percentage of early apoptotic cells (A375 melanoma cells; Cx43 overexpressing A375 vs empty vector)
CC1(C)[C@@H](OC(=O)CCC(=O)O)CC[C@]2(C)[C@H]3C(=O)C=C4[C@@H]5C[C@@](C)(C(=O)O)CC[C@]5(C)CC[C@@]4(C)[C@]3(C)CC[C@@H]12 [CBX, Carbenoloxolone disodium salt, reference compound] | No changes were detected in colony formation capacity | – | – | – | – | – | – | – | – | – | – | – | – | – | – | – | –
Cx43: channel protein Connexin 43, restored in tumour cells with a pIRESpuro2 plasmid containing the human Cx43 sequence | – | showed the highest levels of cleavage caspase-3 | showed the highest levels of cleavage caspase-3 | increases the MFI ratio of apoptotic cells | higher levels of the senescent biomarkers p53 and p16 than control cells | enhanced cellular senescence | increases cellular senescence | significantly decreases the capacity to form colonies | significantly decreases the capacity to form colonies | significantly decreases the capacity to form colonies | increased levels of dye coupling compared with control EV | significantly less cell proliferation and colony formation capacity | Almost no cells were detected | significant reduction in the proliferation rate | significantly decreases the capacity to form colonies | increases cellular senescence and apoptosis | significantly higher
